The term IC50 denotes the midpoint of a concentration-inhibition curve. A higher IC50 goes with lower potency.

Seven compounds from patent publication US7109192B2, “Substituted imidazo-pyridinones and imidazo-pyridazinones, the preparation thereof and their use as pharmaceutical compositions” (Boehringer Ingelheim Pharma GmbH & Co KG, priority 2002, dated 2006) can be followed below.

One data set relates to rats. The experiment in a line: Tolerability in rats after oral administration. Conditions: 10 mg/kg. Type of data set: in vivo, rat.
Another data set concerns the target T1, DPP-IV (Homo sapiens, UniProt P27487).
T1 construct: an extract of human colon carcinoma cell line Caco-2 is used as the DPP IV source; endogenous in cells; host or cells: Caco-2 (human colon carcinoma), differentiated to induce DPP-IV expression; Nonidet-P40 solubilised extract
The experiment in a line: DPP-IV inhibition assay with Caco-2 cell extract, AFC substrate, fluorescence. Type of data set: biochemical. The following applies: extract of human colon carcinoma cell line Caco-2 as DPP IV source; 100 μM AFC substrate; 60 minutes, ambient temperature. As for the experimental part: The cell extract was obtained from cells solubilised in a buffer (10 mM Tris HCl, 0.15 M NaCl, 0.04 t.i.u. aprotinin, 0.5% Nonidet-P40, pH 8.0) by centrifuging at 35,000 g for 30 minutes at 4° C. (to remove cell debris).
The DPP-IV assay was carried out as follows:
50 μl substrate solution (AFC; AFC is amido-4-trifluoromethylcoumarin), final concentration 100 μM, were placed in black microtitre plates. 20 μl of assay buffer (final concentrations 50 mM Tris HCl pH 7.8, 50 mM NaCl, 1% DMSO) was pipetted in. The reaction was started by adding 30 μl of solubilised Caco-2 protein (final concentration 0.14 μg of protein per well). The test substances to be investigated were typically added prediluted in 20 μl, and the volume of assay buffer was then reduced accordingly. The reaction was carried out at ambient temperature, incubating for 60 minutes. […] Blank readings (corresponding to 0% activity) were obtained in mixtures without any Caco-2 protein (volume replaced by assay buffer), control values (corresponding to 100% activity) were obtained in mixtures with no substance added.

Molecules are shown by their SMILES. Counter-ions that a name gives are not always drawn.

T1 sequence (P27487 whole entry): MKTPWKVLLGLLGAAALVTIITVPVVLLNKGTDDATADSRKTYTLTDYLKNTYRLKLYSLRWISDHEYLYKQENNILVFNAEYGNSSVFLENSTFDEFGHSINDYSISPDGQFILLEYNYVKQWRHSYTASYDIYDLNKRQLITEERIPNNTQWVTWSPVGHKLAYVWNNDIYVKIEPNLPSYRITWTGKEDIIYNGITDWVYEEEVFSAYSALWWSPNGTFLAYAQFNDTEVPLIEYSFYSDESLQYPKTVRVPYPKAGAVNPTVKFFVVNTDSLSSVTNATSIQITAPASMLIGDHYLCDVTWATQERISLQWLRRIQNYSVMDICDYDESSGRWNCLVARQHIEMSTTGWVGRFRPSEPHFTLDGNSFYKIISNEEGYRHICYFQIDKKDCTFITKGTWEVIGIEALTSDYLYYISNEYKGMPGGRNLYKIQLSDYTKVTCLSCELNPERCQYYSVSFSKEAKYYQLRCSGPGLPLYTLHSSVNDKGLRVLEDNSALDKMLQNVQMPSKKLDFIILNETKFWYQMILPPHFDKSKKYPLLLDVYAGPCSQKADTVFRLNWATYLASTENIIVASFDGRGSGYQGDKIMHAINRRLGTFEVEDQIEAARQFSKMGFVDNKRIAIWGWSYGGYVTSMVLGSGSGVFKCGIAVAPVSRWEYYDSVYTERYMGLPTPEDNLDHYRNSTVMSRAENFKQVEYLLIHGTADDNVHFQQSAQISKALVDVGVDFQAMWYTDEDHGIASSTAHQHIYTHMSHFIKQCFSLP

`CC#CCn1c(N2CCCC(N)C2)nc2cnn(Cc3cccc4ccccc34)c(=O)c21` (stereo not shown) [Example 2, 2-(3-amino-piperidin-1-yl)-3-(but-2-ynyl)-5-(naphthalen-1-ylmethyl)-3,5-dihydro-imidazo[4,5-d]pyridazin-4-one]: the “changes in the animals' behaviour” value in the data set on rats is “no changes in the animals' behaviour could be detected”.
Turning to `CC#CCn1c(N2CCCC(N)C2)nc2cnn(Cc3ccc4nccnc4c3)c(=O)c21` (stereo not shown) [Example 182, 2-(3-amino-piperidin-1-yl)-3-(but-2-ynyl)-5-(quinoxalin-6-ylmethyl)-3,5-dihydro-imidazo[4,5-d]pyridazin-4-one], on DPP-IV, inhibition was half-maximal at 1.2 nM (IC50). That is a single-digit nanomolar value.
Still for that read-out and setting: the result for `CC#CCn1c(N2CCC[C@@H](N)C2)nc2cnn(Cc3ccc(F)c4ccccc34)c(=O)c21` [Example 191, 2-((R)-3-amino-piperidin-1-yl)-3-(but-2-ynyl)-5-(4-fluoronaphthalen-1-ylmethyl)-3,5-dihydro-imidazo[4,5-d]pyridazin-4-one hydrochloride] reads 14 nM; that for `CC#CCn1c(N2CCC[C@@H](N)C2)nc2cnn(Cc3nc4cc(C(F)(F)F)ccc4s3)c(=O)c21` [Example 195, 2-((R)-3-amino-piperidin-1-yl)-3-(but-2-ynyl)-5-(5-trifluoromethylbenzothiazol-2-ylmethyl)-3,5-dihydro-imidazo[4,5-d]pyridazin-4-one hydrochloride], 17 nM; that for `CC#CCn1c(N2CCC[C@@H](N)C2)nc2cnn(Cc3ccc4nonc4c3)c(=O)c21` [Example 202, 2-((R)-3-amino-piperidin-1-yl)-3-(but-2-ynyl)-5-(benzo[1,2,5]oxadiazol-5-ylmethyl)-3,5-dihydro-imidazo[4,5-d]pyridazin-4-one], 9.8 nM.
The same measure, in the same setting: the value for `Cc1cc2ccccc2c(Cn2ncc3nc(N4CCC[C@@H](N)C4)n(Cc4ccccc4Cl)c3c2=O)n1` [Example 205, 2-((R)-3-amino-piperidin-1-yl)-3-(2-chlorobenzyl)-5-(3-methyl-isoquinolin-1-ylmethyl)-3,5-dihydro-imidazo[4,5-d]pyridazin-4-one] was 5.4 nM.
The same measure, in the same setting: the result for `CC#CCn1c(N2CCC[C@@H](N)C2)nc2cnn(Cc3cn(C)c(=O)c4ccccc34)c(=O)c21` [Example 217, 2-((R)-3-amino-piperidin-1-yl)-3-(but-2-ynyl)-5-(2-methyl-2H-isoquinolin-1-on-4-ylmethyl)-3,5-dihydro-imidazo[4,5-d]pyridazin-4-one] reads 10 nM.
